Where two headings read alike, the source gives them in different places.

These results are taken from patent publication US9193744B2, “Heterocyclic nuclear hormone receptor modulators” (AbbVie Inc., priority 2012, dated 2015).

The target of assay [1] is T1, Glucocorticoid Receptor (GR) (Homo sapiens, UniProt P04150).
T1 construct: purchased Invitrogen P2893
T1 sequence (P04150 1-777): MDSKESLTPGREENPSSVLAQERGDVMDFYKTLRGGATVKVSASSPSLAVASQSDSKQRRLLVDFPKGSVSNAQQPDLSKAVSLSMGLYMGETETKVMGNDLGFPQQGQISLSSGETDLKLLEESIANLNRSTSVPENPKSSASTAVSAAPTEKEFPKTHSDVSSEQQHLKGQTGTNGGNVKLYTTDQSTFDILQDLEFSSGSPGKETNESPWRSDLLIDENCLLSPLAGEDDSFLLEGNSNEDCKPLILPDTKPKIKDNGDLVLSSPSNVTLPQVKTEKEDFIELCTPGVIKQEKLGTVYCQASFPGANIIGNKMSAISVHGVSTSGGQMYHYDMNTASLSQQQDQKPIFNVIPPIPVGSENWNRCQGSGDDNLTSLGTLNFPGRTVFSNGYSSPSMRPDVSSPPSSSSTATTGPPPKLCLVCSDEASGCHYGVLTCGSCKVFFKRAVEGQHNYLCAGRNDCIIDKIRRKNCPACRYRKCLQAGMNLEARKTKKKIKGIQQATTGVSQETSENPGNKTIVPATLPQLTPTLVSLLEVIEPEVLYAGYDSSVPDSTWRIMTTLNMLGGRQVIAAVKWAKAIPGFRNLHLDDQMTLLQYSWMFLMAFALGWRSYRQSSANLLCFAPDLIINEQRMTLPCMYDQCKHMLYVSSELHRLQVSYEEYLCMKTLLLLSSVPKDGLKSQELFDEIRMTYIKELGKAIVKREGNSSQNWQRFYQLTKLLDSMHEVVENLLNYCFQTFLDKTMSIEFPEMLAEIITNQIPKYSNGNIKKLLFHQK
As to the kind of experiment: GR Fluorescence Polarization Assay (PolarScreen Glucocorticoid Receptor Competitor Assay, Red). The note with it: fluorescence polarization binding ranges. The gist of the method: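 Compound displacement of a red-labelled glucocorticoid from GR, read as fluorescence polarization. Tracer, receptor and 1:4-serially diluted compound were left together overnight at 4° C in the kit assay buffer.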

Another assay concerns IL-6. As to the kind of experiment: A549 Cell Assay to Measure Inflammation Markers (inhibition of IL-1β-induced IL-6). It is filed as cell-based. The note with it: A549 cells, read-out: A549 cell assay. The gist of the method: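 A549 cells pre-incubated 1 h with compound (10-point dilution, 0.1% DMSO final) in charcoal-stripped serum medium, then stimulated 4 h with 1 ng/mL IL-1β at 37° C. Supernatant IL-6 measured by MSD immunoassay; IC50 and Emax relative to 1 μM prednisolone as 100% inhibition; viability checked by CellTiter-Glo.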

In another assay the test system is OCN. In words: MG-63 Cell Assay to Measure Bone Markers (inhibition of Vitamin K/Vitamin D-induced OCN). The note with it: Homo sapiens, MG63 cells. It is filed as cell-based. Here is the method: MG-63 Cell Assay to Measure Bone Markers
MG-63 cells were cultured in culture media containing ascorbic acid (DMEM/F12 supplemented with 10% FBS, 1% HEPES, 100 U/mL-100 μg/mL Pen-Strep, and 100 μg/mL of ascorbic acid) for, minimally, 1 week before study. MG-63 cells were seeded (4E4 cells/well) in 96-well assay plates in culture medium (200 μL/well.) After overnight culture in an incubator set to 37° C., 4.9% CO2, and 90% humidity, media was removed from adherent cells by aspiration and replaced with 100 μL/well assay medium, DMEM/F12 supplemented with 5% Charcoal Stripped Serum, 1% HEPES, 100 U/mL-100 μg/mL Pen-Strep, and 100 μg/mL of ascorbic acid. Compounds were prepared with DMSO and serial diluted (1:3, 1:4, or 1:5) with DMSO in dilution plate(s) to give 10 dilution points for each compound tested. Further dilution (1:250) of compound was made into assay medium and 50 μL/well diluted drug or DMSO/media control was applied to cells. After a 1 h pre-incubation in a temperature, CO2, and humidity controlled incubator, set to 37° C., 50 μL/well of 40 nM Vitamin K and 400 nM Vitamin D that were diluted in assay media were applied to plates. Assay plates, with a final volume of 200 μL/well and final concentrations of 0.1% DMSO, 10 nM Vitamin K, and 100 nM Vitamin D, were returned to incubator for overnight culture. Next, plates were spun at 183 g (1000 rpm in Beckman/Coulter Allegra 6KR centrifuge) for 10 min. Cell-free supenatant (150 μL/well) was collected and OCN was measured by MSD kit, following protocol of manufacturer, and using MSD SECTOR Imager 6000 instrument. Potency of drug to inhibit OCN was determined using the percent reduction of measured OCN in wells with drug compared to control wells without drug, and relative to (100% inhibition) positive control sample of 10 μM prednisolone. Results were represented as IC50 and Emax values. To verify that viable cell numbers were similar across plate(s), and not confounding compound IC50 data interpretation, the remaining 50 μL/well of cells and media (after removal of supernatant) were used to run Cell Titer-Glo Assay per directions of manufacturer.

Regarding `CC[C@@]12CC[C@@](O)(C(F)(F)F)C[C@@H]1CCCc1cc3c(cnn3-c3ccc(F)cc3)cc12` (racemic) [Example 1, (3S,4aS,12bR)-12b-Ethyl-9-(4-fluoro-phenyl)-3-trifluoromethyl-1,2,3,4,4a, 5,6,7,9,12b-decahydro-9,10-diaza-benzo[3,4]cyclohepta[1,2-f]inden-3-ol; compound with (3R,4aR,12bS)-12b-ethyl-9-(4-fluoro-phenyl)-3-trifluoromethyl-1,2,3,4,4a,5,6,7,9,12b-decahydro-9,10-diaza-benzo[3,4]cyclohepta[1,2-f]inden-3-ol], the IC50 (in assay [1]; in the assay on IL-6 (Homo sapiens); in the assay on OCN) was < 100 nM in each case.

For `CCC[C@]1(O)CC[C@@]2(CC)c3cc4cnn(-c5ccc(F)cc5)c4cc3CCC[C@@H]2C1` (racemic) [Example 4, (3S,4aR,12bR)-12b-Ethyl-9-(4-fluoro-phenyl)-3-propyl-1,2,3,4,4a,5,6,7,9,12b-decahydro-9,10-diaza-benzo[3,4]cyclohepta[1,2-f]inden-3-ol; compound with (3R,4aS,12bS)-12b-ethyl-9-(4-fluoro-phenyl)-3-propyl-1,2,3,4,4a,5,6,7,9,12b-decahydro-9,10-diaza-benzo[3,4]cyclohepta[1,2-f]inden-3-ol], the values for the IC50 (in assay [1]; with IL-6 (Homo sapiens); in the assay with OCN) were < 100 nM, 100 to 1000 nM and < 100 nM, respectively.

`COC[C@@]1(O)CC[C@@]2(Cc3ccccn3)c3cc4cnn(-c5ccc(F)cc5)c4cc3CCC[C@H]2C1` (racemic) [Example 11]: the IC50 (in assay [1]; with IL-6 (Homo sapiens); in the assay with OCN) was < 100 nM in each case.

`CC[C@@]12CC[C@](O)(COC)C[C@@H]1CCCc1cc3[nH]ncc3cc12` (racemic) [Example 14, (3R,4aS,12bR)-12b-Ethyl-3-methoxymethyl-1,2,3,4,4a,5,6,7,9,12b-decahydro-9,10-diaza-benzo[3,4]cyclohepta[1,2-f]inden-3-ol; compound with (3S,4aR,12bS)-12b-ethyl-3-methoxymethyl-1,2,3,4,4a,5,6,7,9,12b-decahydro-9,10-diaza-benzo[3,4]cyclohepta[1,2-f]inden-3-ol]: the IC50 in assay [1] is < 100 nM; in the assay with IL-6 (Homo sapiens), > 10000 nM; in the assay with OCN it was > 10000 nM.

Turning to `CC[C@@]12CC[C@@](O)(C(F)(F)F)C[C@@H]1CCCc1cc3c(cnn3-c3ccc(F)cc3)cc12` (single isomer, unassigned) [Example 3], the IC50 is < 100 nM in assay [1], < 100 nM with IL-6 (Homo sapiens) and 100 to 1000 nM in the assay on OCN.

Turning to `CCC[C@]1(O)CC[C@@]2(CC)c3cc4cnn(-c5ccc(F)cc5)c4cc3CCC[C@@H]2C1` (single isomer, unassigned) [Example 5], the IC50 in assay [1] was < 100 nM; in the assay on IL-6 (Homo sapiens) it was 100 to 1000 nM; in the assay on OCN, > 10000 nM.

For the molecule `CC[C@@]12CC[C@@](O)(COC)C[C@H]1CCCc1cc3c(cnn3-c3ccc(F)cc3)cc12` (single isomer, unassigned) [Example 7], the IC50 was < 100 nM in assay [1], < 100 nM with IL-6 (Homo sapiens) and > 10000 nM in the assay with OCN.

As for `CCOC[C@]1(O)CC[C@@]2(CC)c3cc4cnn(-c5ccc(F)cc5)c4cc3CCC[C@@H]2C1` (single isomer, unassigned) [Example 9], the IC50 in assay [1] is < 100 nM; with IL-6 (Homo sapiens) it was 100 to 1000 nM; with OCN, > 10000 nM.

Consider `COC[C@@]1(O)CC[C@@]2(Cc3ccccn3)c3cc4cnn(-c5ccc(F)cc5)c4cc3CCC[C@H]2C1` (single isomer, unassigned) [Example 12], for which the IC50 (in assay [1]; in the assay on IL-6 (Homo sapiens); with OCN) was < 100 nM throughout.

Turning to `COC[C@@]1(O)CC[C@@]2(Cc3ccccn3)c3cc4cnn(-c5ccc(F)cc5)c4nc3CCC[C@@H]2C1` [Example 156], the IC50 (in assay [1]; in the assay on IL-6) was < 100 nM each time.

For `COC[C@@]1(O)CC[C@@]2(Cc3ncccn3)c3cc4cnn(-c5ccc(F)cc5)c4nc3CCC[C@H]2C1` [Example 158], the IC50 (in assay [1]; with IL-6) was < 100 nM throughout.

Regarding `N#CC[C@]1(O)CC[C@]2(Cc3ncccn3)c3cc4cnn(-c5ccc(F)cc5)c4nc3CCC[C@@H]2C1` [Example 160], the IC50 (in assay [1]; with IL-6) was < 100 nM throughout.

With `C[C@]1(O)CC[C@]2(Cc3ncccn3)c3cc4cnn(-c5ccc(F)cc5)c4nc3CCC[C@@H]2C1` [Example 162], the IC50 in assay [1] lay within 100 to 1000 nM; with IL-6 it was 1000 to 10000 nM.

In the case of `N#CC[C@@]1(O)CC[C@@]2(Cc3ccccn3)c3cc4cnn(-c5ccc(F)cc5)c4nc3CCC[C@H]2C1` [Example 163], the IC50 (in assay [1]; with IL-6) was < 100 nM throughout.

With `N#CC[C@@]1(O)CC[C@@]2(Cc3ncccn3)c3cc4cnn(-c5ccc(F)cc5)c4nc3CCC[C@H]2C1` [Example 165], the IC50 (in assay [1]; in the assay on IL-6) was < 100 nM each time.

Consider `CC[C@@]12CC[C@](O)(C(F)(F)F)C[C@H]1CCCc1cc3c(cnn3-c3ccc(S(C)(=O)=O)cc3)cc12` [Example 168, (3R,4aR,12bR)-12b-ethyl-9-(4-(methylsulfonyl)phenyl)-3-(trifluoromethyl)-1,2,3,4,4a,5,6,7,9,12b-decahydrobenzo[6,7]cyclohepta[1,2-f]indazol-3-ol], for which the IC50 (in assay [1]; in the assay with IL-6 (Homo sapiens)) was < 100 nM in each case.

With `CC[C@]12CC[C@@](O)(C(F)(F)F)C[C@@H]1CCCc1cc3c(cnn3-c3ccc(S(C)(=O)=O)cc3)cc12` [Example 169, (3S,4aS,12bS)-12b-ethyl-9-(4-(methylsulfonyl)phenyl)-3-(trifluoromethyl)-1,2,3,4,4a,5,6,7,9,12b-decahydrobenzo[6,7]cyclohepta[1,2-f]indazol-3-ol], the IC50 in assay [1] lay in the range of 100 to 1000 nM; in the assay with IL-6 (Homo sapiens), 1000 to 10000 nM.

For the molecule `CC[C@]12CC[C@@](OCC(N)=O)(C(F)(F)F)C[C@@H]1CCCc1cc3c(cnn3-c3ccc(F)cc3)cc12` [Example 171, 2-(((3S,4aS,12bS)-12b-Ethyl-9-(4-fluorophenyl)-3-(trifluoromethyl)-1,2,3,4,4a,5,6,7,9,12b-decahydrobenzo[6,7]cyclohepta[1,2-f]indazol-3-yl)oxy)acetamide], the IC50 (in assay [1]; in the assay with IL-6 (Homo sapiens)) was < 100 nM throughout.

Turning to `CC[C@]12CC[C@@](OCC(=O)O)(C(F)(F)F)C[C@@H]1CCCc1cc3c(cnn3-c3ccc(F)cc3)cc12` [Example 172, 2-(((3S,4aS,12bS)-12b-ethyl-9-(4-fluorophenyl)-3-(trifluoromethyl)-1,2,3,4,4a,5,6,7,9,12b-decahydrobenzo[6,7]cyclohepta[1,2-f]indazol-3-yl)oxy)acetic acid], the IC50 is < 100 nM in assay [1] and > 10000 nM in the assay with IL-6 (Homo sapiens).

Take “(2S,3R,4aS,12bS)-12b-ethyl-9-(4-fluorophenyl)-3-(trifluoromethyl)-1,2,3,4,4a,5,6,7,9,12b-decahydrobenzo[6,7]cyclohepta[1,2-f]indazole-2,3-diol [Example 120]”: the IC50 in assay [1] is < 100 nM; with IL-6, 100 to 1000 nM.
